Assay results taken from the NIST ThermoML archive (doi:10.1021/acs.jced.6b00542).
± gives the expanded uncertainty stated by the source.

Experiment: xn = mol fraction of the nth substance listed
Settings: for speed of sound: 100 kPa, Frequency=3 MHz, Sing-around technique in a fixed-path interferometer; for speed of sound / viscosity / mass density: Liquid; for viscosity / mass density: 102 kPa; for viscosity: Concentric cylinders viscometry; for mass density: Vibrating tube method; for surface tension liquid-gas: 294.5 K, Pendant drop shape

CCCCc1ccccc1 [butylbenzene] + CCCCCCCCCC
Settings | mass density [kg/m3] | speed of sound [m/s] | viscosity [mPa·s]
293.15 K, x1 = 0.1055 | 740.9 ± 0.17 | 1259.2 ± 1 | 0.917 ± 0.007
293.15 K, x1 = 0.2096 | 752.3 ± 0.16 | 1266.3 ± 1 | 0.917 ± 0.007
293.15 K, x1 = 0.3124 | 764.12 ± 0.15 | 1273.8 ± 1 | 0.921 ± 0.007
293.15 K, x1 = 0.4141 | 776.38 ± 0.15 | 1282.1 ± 0.9 | 0.928 ± 0.007
293.15 K, x1 = 0.5145 | 789.08 ± 0.14 | 1291.3 ± 1.1 | 0.94 ± 0.007
293.15 K, x1 = 0.614 | 802.32 ± 0.13 | 1301.1 ± 0.9 | 0.957 ± 0.007
293.15 K, x1 = 0.712 | 816.03 ± 0.13 | 1312.2 ± 0.9 | 0.981 ± 0.007
293.15 K, x1 = 0.8094 | 830.38 ± 0.12 | 1324.5 ± 1.1 | 1 ± 0.01
293.15 K, x1 = 0.9051 | 845.04 ± 0.12 | 1338.2 ± 0.9 | 1.03 ± 0.01
293.15 K, x1 = 1 | 860.51 ± 0.11 | 1353.7 ± 0.9 | 1.05 ± 0.01
303.15 K, x1 = 0.1055 | 733.32 ± 0.17 | 1220.2 ± 1 | 0.792 ± 0.007
303.15 K, x1 = 0.2096 | 744.67 ± 0.16 | 1227.4 ± 1 | 0.794 ± 0.007
303.15 K, x1 = 0.3124 | 756.43 ± 0.16 | 1235 ± 0.9 | 0.798 ± 0.007
303.15 K, x1 = 0.4141 | 768.66 ± 0.15 | 1243.5 ± 0.9 | 0.805 ± 0.007
303.15 K, x1 = 0.5145 | 781.31 ± 0.14 | 1252.5 ± 0.9 | 0.816 ± 0.007
303.15 K, x1 = 0.614 | 794.51 ± 0.14 | 1262.6 ± 0.9 | 0.83 ± 0.007
303.15 K, x1 = 0.712 | 808.16 ± 0.13 | 1273.7 ± 0.9 | 0.849 ± 0.007
303.15 K, x1 = 0.8094 | 822.46 ± 0.12 | 1286 ± 1.1 | 0.866 ± 0.007
303.15 K, x1 = 0.9051 | 837.07 ± 0.12 | 1299.4 ± 0.9 | 0.891 ± 0.007
303.15 K, x1 = 1 | 852.49 ± 0.11 | 1314.9 ± 0.9 | 0.91 ± 0.007
313.15 K, x1 = 0.1055 | 725.64 ± 0.17 | 1181.5 ± 1 | 0.693 ± 0.006
313.15 K, x1 = 0.2096 | 736.97 ± 0.16 | 1188.9 ± 1 | 0.696 ± 0.006
313.15 K, x1 = 0.3124 | 748.7 ± 0.16 | 1196.6 ± 0.9 | 0.7 ± 0.006
313.15 K, x1 = 0.4141 | 760.89 ± 0.15 | 1205.2 ± 0.9 | 0.707 ± 0.006
313.15 K, x1 = 0.5145 | 773.5 ± 0.14 | 1214.3 ± 0.9 | 0.716 ± 0.006
313.15 K, x1 = 0.614 | 786.65 ± 0.14 | 1224.4 ± 0.9 | 0.727 ± 0.006
313.15 K, x1 = 0.712 | 800.26 ± 0.13 | 1235.6 ± 0.9 | 0.743 ± 0.006
313.15 K, x1 = 0.8094 | 814.51 ± 0.13 | 1247.9 ± 1 | 0.76 ± 0.006
313.15 K, x1 = 0.9051 | 829.07 ± 0.12 | 1261.2 ± 0.9 | 0.781 ± 0.006
313.15 K, x1 = 1 | 844.43 ± 0.11 | 1276.6 ± 0.9 | 0.801 ± 0.006
323.15 K, x1 = 0.1055 | 717.94 ± 0.17 | 1143.3 ± 1 | 0.616 ± 0.006
323.15 K, x1 = 0.2096 | 729.23 ± 0.17 | 1150.8 ± 1 | 0.619 ± 0.006
323.15 K, x1 = 0.3124 | 740.92 ± 0.16 | 1158.7 ± 0.9 | 0.624 ± 0.006
323.15 K, x1 = 0.4141 | 753.07 ± 0.15 | 1167.3 ± 0.9 | 0.63 ± 0.006
323.15 K, x1 = 0.5145 | 765.64 ± 0.15 | 1176.6 ± 0.9 | 0.639 ± 0.006
323.15 K, x1 = 0.614 | 778.75 ± 0.14 | 1186.7 ± 0.9 | 0.649 ± 0.006
323.15 K, x1 = 0.712 | 792.31 ± 0.13 | 1197.9 ± 0.9 | 0.661 ± 0.006
323.15 K, x1 = 0.8094 | 806.52 ± 0.13 | 1210.2 ± 1 | 0.677 ± 0.006
323.15 K, x1 = 0.9051 | 821.03 ± 0.12 | 1223.5 ± 0.8 | 0.695 ± 0.006
323.15 K, x1 = 1 | 836.34 ± 0.11 | 1238.7 ± 0.8 | 0.713 ± 0.006
333.15 K, x1 = 0.1055 | 710.17 ± 0.18 | 1105.6 ± 1 | 0.547 ± 0.006
333.15 K, x1 = 0.2096 | 721.43 ± 0.17 | 1113.2 ± 0.9 | 0.549 ± 0.006
333.15 K, x1 = 0.3124 | 733.08 ± 0.16 | 1121.2 ± 0.9 | 0.555 ± 0.006
333.15 K, x1 = 0.4141 | 745.19 ± 0.15 | 1129.9 ± 0.9 | 0.56 ± 0.006
333.15 K, x1 = 0.5145 | 757.73 ± 0.15 | 1139.3 ± 0.9 | 0.568 ± 0.006
333.15 K, x1 = 0.614 | 770.8 ± 0.14 | 1149.5 ± 0.9 | 0.577 ± 0.006
333.15 K, x1 = 0.712 | 784.32 ± 0.14 | 1160.7 ± 0.9 | 0.589 ± 0.006
333.15 K, x1 = 0.8094 | 798.48 ± 0.13 | 1173 ± 1 | 0.602 ± 0.006
333.15 K, x1 = 0.9051 | 812.95 ± 0.13 | 1186.3 ± 0.8 | 0.618 ± 0.006
333.15 K, x1 = 1 | 828.21 ± 0.12 | 1201.4 ± 0.8 | 0.636 ± 0.006
343.15 K, x1 = 0.1055 | 702.3 ± 0.3 | – | 0.488 ± 0.006
343.15 K, x1 = 0.2096 | 713.5 ± 0.3 | – | 0.492 ± 0.006
343.15 K, x1 = 0.3124 | 725.1 ± 0.3 | – | 0.496 ± 0.006
343.15 K, x1 = 0.4141 | 737.2 ± 0.3 | – | 0.502 ± 0.006
343.15 K, x1 = 0.5145 | 749.7 ± 0.2 | – | 0.509 ± 0.006
343.15 K, x1 = 0.614 | 762.7 ± 0.2 | – | 0.518 ± 0.006
343.15 K, x1 = 0.712 | 776.1 ± 0.2 | – | 0.528 ± 0.006
343.15 K, x1 = 0.8094 | 790.3 ± 0.2 | – | 0.54 ± 0.006
343.15 K, x1 = 0.9051 | 804.7 ± 0.2 | – | 0.554 ± 0.006
343.15 K, x1 = 1 | 819.9 ± 0.2 | – | 0.571 ± 0.006
353.15 K, x1 = 0.1055 | 694.4 ± 0.3 | – | 0.439 ± 0.005
353.15 K, x1 = 0.2096 | 705.6 ± 0.3 | – | 0.443 ± 0.005
353.15 K, x1 = 0.3124 | 717.1 ± 0.3 | – | 0.447 ± 0.005
353.15 K, x1 = 0.4141 | 729.2 ± 0.3 | – | 0.453 ± 0.005
353.15 K, x1 = 0.5145 | 741.7 ± 0.2 | – | 0.46 ± 0.005
353.15 K, x1 = 0.614 | 754.6 ± 0.2 | – | 0.467 ± 0.005
353.15 K, x1 = 0.712 | 768 ± 0.2 | – | 0.477 ± 0.005
353.15 K, x1 = 0.8094 | 782.1 ± 0.2 | – | 0.488 ± 0.005
353.15 K, x1 = 0.9051 | 796.5 ± 0.2 | – | 0.5 ± 0.005
353.15 K, x1 = 1 | 811.7 ± 0.2 | – | 0.516 ± 0.006
363.15 K, x1 = 0.1055 | 686.4 ± 0.3 | – | 0.399 ± 0.005
363.15 K, x1 = 0.2096 | 697.5 ± 0.3 | – | 0.402 ± 0.005
363.15 K, x1 = 0.3124 | 709.1 ± 0.3 | – | 0.407 ± 0.005
363.15 K, x1 = 0.4141 | 721.1 ± 0.3 | – | 0.412 ± 0.005
363.15 K, x1 = 0.5145 | 733.5 ± 0.2 | – | 0.419 ± 0.005
363.15 K, x1 = 0.614 | 746.4 ± 0.2 | – | 0.426 ± 0.005
363.15 K, x1 = 0.712 | 759.9 ± 0.2 | – | 0.434 ± 0.005
363.15 K, x1 = 0.8094 | 773.9 ± 0.2 | – | 0.444 ± 0.005
363.15 K, x1 = 0.9051 | 788.3 ± 0.2 | – | 0.456 ± 0.005
363.15 K, x1 = 1 | 803.4 ± 0.2 | – | 0.469 ± 0.005
373.15 K, x1 = 0.1055 | 678.2 ± 0.3 | – | 0.365 ± 0.005
373.15 K, x1 = 0.2096 | 689.3 ± 0.3 | – | 0.369 ± 0.005
373.15 K, x1 = 0.3124 | 700.9 ± 0.3 | – | 0.373 ± 0.005
373.15 K, x1 = 0.4141 | 712.8 ± 0.3 | – | 0.378 ± 0.005
373.15 K, x1 = 0.5145 | 725.3 ± 0.3 | – | 0.384 ± 0.005
373.15 K, x1 = 0.614 | 738.2 ± 0.2 | – | 0.391 ± 0.005
373.15 K, x1 = 0.712 | 751.6 ± 0.2 | – | 0.399 ± 0.005
373.15 K, x1 = 0.8094 | 765.6 ± 0.2 | – | 0.408 ± 0.005
373.15 K, x1 = 0.9051 | 779.9 ± 0.2 | – | 0.419 ± 0.005
373.15 K, x1 = 1 | 795 ± 0.2 | – | 0.43 ± 0.005

Settings | surface tension liquid-gas [mN/m]
x1 = 0.1055 | 23.9 ± 0.3
x1 = 0.2096 | 24.3 ± 0.4
x1 = 0.3124 | 24.6 ± 0.4
x1 = 0.4141 | 24.9 ± 0.4
x1 = 0.5145 | 25.4 ± 0.4
x1 = 0.614 | 25.8 ± 0.4
x1 = 0.712 | 26.5 ± 0.4
x1 = 0.8094 | 26.7 ± 0.4
x1 = 0.9051 | 27.9 ± 0.4
